According to article PMC4177951, “Identification and Functional Expression of a Glutamate- and Avermectin-Gated Chloride Channel from Caligus rogercresseyi, a Southern Hemisphere Sea Louse Affecting Farmed Fish” (PLoS Pathogens, 2014):

What was measured:
CrGluClα = biological target: T1, CrGluClα (Caligus rogercresseyi, UniProt A0A1W6LZ70); assay: two-electrode voltage clamp in Xenopus oocytes expressing the channel; agonist concentration-response; type: cell-based
T1 construct: full-length ORF (clones CrGluCl-Vald13 and CrGluCl-Vald2)
T1 sequence (A0A1W6LZ70 entry or part of it): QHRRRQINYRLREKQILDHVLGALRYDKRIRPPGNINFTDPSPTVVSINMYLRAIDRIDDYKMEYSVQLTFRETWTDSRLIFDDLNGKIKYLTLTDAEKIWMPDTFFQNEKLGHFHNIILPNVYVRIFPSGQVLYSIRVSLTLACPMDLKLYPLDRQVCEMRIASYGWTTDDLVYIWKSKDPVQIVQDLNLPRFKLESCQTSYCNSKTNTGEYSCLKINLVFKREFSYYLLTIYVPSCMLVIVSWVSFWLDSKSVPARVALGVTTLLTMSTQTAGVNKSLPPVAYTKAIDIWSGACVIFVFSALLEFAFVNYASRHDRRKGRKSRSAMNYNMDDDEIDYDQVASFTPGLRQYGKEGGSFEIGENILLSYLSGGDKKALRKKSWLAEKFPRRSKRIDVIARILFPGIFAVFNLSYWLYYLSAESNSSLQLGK

CrGluClα-T318A = biological target: T2, CrGluClα-T318A (Caligus rogercresseyi, UniProt A0A1W6LZ70, T318A); assay: two-electrode voltage clamp in Xenopus oocytes; concentration-response of small evoked currents (Figure 9D); type: cell-based
T2 construct: full ORF in pCR3.1, homopentamer expressed in Xenopus laevis oocytes, T318A point mutant at extracellular end of M3
T2 sequence (A0A1W6LZ70 33-463 T318A): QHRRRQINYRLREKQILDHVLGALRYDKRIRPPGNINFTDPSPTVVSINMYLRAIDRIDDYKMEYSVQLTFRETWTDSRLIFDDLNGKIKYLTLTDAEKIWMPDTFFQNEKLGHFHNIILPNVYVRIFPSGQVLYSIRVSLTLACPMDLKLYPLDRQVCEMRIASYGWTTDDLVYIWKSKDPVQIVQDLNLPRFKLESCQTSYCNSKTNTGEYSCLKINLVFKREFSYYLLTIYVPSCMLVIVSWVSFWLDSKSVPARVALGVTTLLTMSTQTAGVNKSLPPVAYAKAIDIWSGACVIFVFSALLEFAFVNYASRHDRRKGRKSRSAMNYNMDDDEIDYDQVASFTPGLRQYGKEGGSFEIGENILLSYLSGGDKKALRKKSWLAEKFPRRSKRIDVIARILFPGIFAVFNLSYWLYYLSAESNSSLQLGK

## N[C@@H](CCC(=O)O)C(=O)O [L-glutamate]
CrGluClα
  EC50: 6.89 ± 0.83 µM
CrGluClα-T318A
  concentration-response of evoked currents: Maximal response was reached at lower glutamate concentrations in the CrGluClα-T318A mutant channel.
